Like-named read-outs stand apart in the source and are kept apart here. Marks after values point to notes of the source that are not given here.
Tests used:
[1] = tested on: ovalbumin-induced asthma Balb/c mice; experiment: Airway hyperresponsiveness (Pehn, plethysmography) in ovalbumin-induced asthma model; type: in vivo, mouse
Procedure: (§1) 6-week-old female SPF (specific pathogen-free) Balb/c mice (average weight: 20 g) were purchased from Samtako (Korea). The animals were sufficiently fed with solid feed (antibiotic-free, Samyang Feed Co.) and water until the start point of the experiment, and acclimated at a temperature of 22±2° C., a humidity of 55±15%, and a 12-hr light/12-hr dark cycle for 1 week, and then used in experiments. After 1 week of the acclimation period as described above, the mice were sensitized by intraperitoneal administration of a suspension of 2 mg of aluminum oxide (A8222, Sigma-Aldrich, MO, USA) and 20 μg of ovalbumin (A5503, Sigma-Aldrich) in 200 μl of phosphate buffered saline at two-week intervals. During a period from day 21 to day 23 after the first intraperitoneal administration of ovalbumin, 1% ovalbumin was inhaled into the mice for 30 minutes using an ultrasonic nebulizer (NE-U12, Omron Corp., Japan). At 24 hours after the last ovalbumin challenge, the airway hyperresponsiveness of the mice was measured, and after 48 hours, the mice were anesthetized by intraperitoneal administration of Pentobarbital (50 mg/kg, Entobal, Hanil, Korea). Then, blood was collected through the saphenous vein, and the mice were subjected to tracheostomy. Next, each of the mice was subjected to bronchoalveolar lavage with a total of 1.4 ml of PBS to collect an analytical sample. […] The drug and the sample were administered orally during a period from day 18 to day 23 after the first ovalbumin […] (FIG. 1). Seven mice were used per group.
To measure airway hyperresponsiveness that is one of the major features of asthma, one chamber plethysmography (All Medicus, Korea) was used. The degree of airway resistance was evaluated by measuring enhanced pause (Pehn). For measurement of Pehn, the basis value was measured in a normal breathing state, and then PBS was inhaled for 3 minutes using an ultrasonic nebulizer, after which the Pehn value was measured for 3 minutes.

[2] = tested on: ovalbumin-induced asthma Balb/c mice; experiment: Inflammatory cell count in bronchoalveolar lavage fluid, ovalbumin-induced asthma model; type: in vivo, mouse; details: BALF
Procedure: as §1
An increase in the number of eosinophils is one of the major features of asthma. Thus, in order to measure the number of eosinophils, the following experiment was performed. The bronchoalveolar lavage fluid from each mouse was stained with trypan blue immediately after collection, and the number of total cells (excluding dead cells) was calculated using a hemocytometer.

[3] = tested on: interleukins (IL-4, IL-5 and IL-13); experiment: Th2 cytokines in bronchoalveolar lavage fluid (ELISA), ovalbumin-induced asthma model; type: in vivo, mouse; details: BALF
Procedure: as §1
The production of interleukins (IL-4, IL-5 and IL-13) in the bronchoalveolar lavage fluid isolated from each mouse was measured using a commercially available enzyme-linked immunosorbent assay (ELISA) kit (R&D System, USA). The analysis of each cytokine was performed according to the manufacturer's instruction, and the absorbance at 450 nm was measured using an ELISA reader (Molecular Devices, USA).

[4] = tested on: serum IgE and ovalbumin-specific IgE; experiment: Serum IgE and ovalbumin-specific IgE (ELISA), ovalbumin-induced asthma model; type: in vivo, mouse
Procedure: as §1
The blood collected through the saphenous vein was incubated at room temperature for 30 minutes, and then centrifuged (3000 rpm, 15 min) to obtain serum. For measurement of serum IgE and ovalbumin-specific IgE, ELISA was used. IgE was measured using commercially available IgE (Biolegend Ins., USA). For measurement of ovalbumin-specific IgE, in a 96-well flat bottom ELISA plate, ovalbumin was dissolved in 0.1 M NaHCO3 buffer (pH 8.3) at a concentration of 20 μg/mL and incubated at 4° C. for 16 hours. Next, PBS containing 1% bovine serum albumin (BSA) was added to suppress nonspecific reactions. The serum sample was diluted at 1:400, allowed to react at room temperature for 2 hours, and then washed with PBS containing 0.05% Tween 20. Horseradish peroxidase (HRP)-conjugated goat […] polyclonal A was diluted 4000-fold and allowed to react at room temperature for 1 hour, and then color development was performed using 3,3′5,5′-tetramethylbenzidine substrate.

[5] = tested on: ovalbumin-induced asthma Balb/c mice; experiment: Histopathological examination of lung tissue (H&E, PAS staining), ovalbumin-induced asthma model; type: in vivo, mouse
EL-4 cells = details: mouse, 24 h
Procedure: EL-4 cells that are mouse T lymphoma cells were suspended in 10% fetal bovine serum-containing RPMI medium (Gibco) at a concentration of 5×10^4 cells/ml, and 100 μl of the cell suspension was seeded into each well of a 96-well plate and cultured for 12 hours. Next, the cell culture was treated with monoacetyldiacylglycerol (MADG) compounds at the concentrations shown in Table 1 below, and was then additionally cultured for 24 hours. Next, according to the instruction provided in a CCK-8 kit (Dojindo) capable of counting cells, 10 μl of CCK-8 solution was added to the kit and allowed to react for 30 minutes to 4 hours, and then the absorbance (OD) at 570 nm was measured. In equation 1, the negative control group indicates a cell culture treated with 0.2% DMSO. […] Cell viability (%)=[(OD 570 nm value of MADC-treated group)/(OD 570 nm value of negative control group)]×100 Equation 1

sepsis animal model = details: cecal-ligation-puncture sepsis model; cited from earlier work

SMILES: CCCCC/C=C\C/C=C\CCCCCCCC(=O)OC(COC(C)=O)COC(=O)CCCCCCCCCCCCCCC (stereo not drawn) [EC-18, 1-palmitoyl-2-linoleoyl-3-acetylglycerol]
- Pehn value ([1]; methacholine 0 mg/mL, 30 mg/kg oral): 0.465 ± 0.08
- Pehn value ([1]; methacholine 0 mg/mL, 60 mg/kg oral): 0.436 ± 0.08
- Pehn value ([1]; methacholine 12.5 mg/mL, 30 mg/kg oral): 1.179 ± 0.49
- Pehn value ([1]; methacholine 12.5 mg/mL, 60 mg/kg oral): 0.778 ± 0.15
- Pehn value ([1]; methacholine 25 mg/mL, 30 mg/kg oral): 2.914 ± 0.67
- Pehn value ([1]; methacholine 25 mg/mL, 60 mg/kg oral): 2.436 ± 0.68
- Pehn value ([1]; methacholine 50 mg/mL, 30 mg/kg oral): 4.098 ± 0.78
- Pehn value ([1]; methacholine 50 mg/mL, 60 mg/kg oral): 3.887 ± 0.59
- airway hyperresponsiveness / Pehn value compared to asthma-induced group ([1]; montelukast 30 mg/kg, EC-18 30 mg/kg and 60 mg/kg): significantly decreased
- Inflammatory cell number, Eosinophils ([2]; 30 mg/kg oral): 93 ± 16.4* 10^5 per mouse
- Inflammatory cell number, Lymphocytes ([2]; 30 mg/kg oral): 16 ± 8.7 10^5 per mouse
- Inflammatory cell number, Macrophages ([2]; 30 mg/kg oral): 82 ± 25.5* 10^5 per mouse
- Inflammatory cell number, Neutrophils ([2]; 30 mg/kg oral): 15 ± 8.4 10^5 per mouse
- Inflammatory cell number, Total cells ([2]; 30 mg/kg oral): 221 ± 33.5* 10^5 per mouse
- Inflammatory cell number, Eosinophils ([2]; 60 mg/kg oral): 112 ± 18.7* 10^5 per mouse
- Inflammatory cell number, Lymphocytes ([2]; 60 mg/kg oral): 13 ± 8.7 10^5 per mouse
- Inflammatory cell number, Macrophages ([2]; 60 mg/kg oral): 113 ± 27.4 10^5 per mouse
- Inflammatory cell number, Neutrophils ([2]; 60 mg/kg oral): 12 ± 6.7 10^5 per mouse
- Inflammatory cell number, Total cells ([2]; 60 mg/kg oral): 253 ± 12.8* 10^5 per mouse
- number of eosinophils compared to asthma-induced group ([2]; groups administered with EC-18): decrease
- number of total inflammatory cells compared to asthma-induced group ([2]; groups administered with EC-18): significant decrease
- secretion of IL-4 compared to asthma-induced group [3]: significantly decreased
- secretion of IL-5 compared to asthma-induced group [3]: significantly decreased
- secretion of IL-13 compared to asthma-induced group [3]: significantly decreased
- Th2 cytokines, IL-4 ([3]; 30 mg/kg oral): 17.89 ± 3.46 pg/mL
- Th2 cytokines, IL-5 ([3]; 30 mg/kg oral): 24.12 ± 3.07 pg/mL
- Th2 cytokines, IL-13 ([3]; 30 mg/kg oral): 97.27 ± 12.80 pg/mL
- Th2 cytokines, IL-4 ([3]; 60 mg/kg oral): 17.09 ± 3.08 pg/mL
- Th2 cytokines, IL-5 ([3]; 60 mg/kg oral): 25.02 ± 2.91 pg/mL
- Th2 cytokines, IL-13 ([3]; 60 mg/kg oral): 81.10 ± 20.46 pg/mL
- ovalbumin-specific IgE compared to asthma-induced group [4]: significantly decreased
- serum IgE compared to asthma-induced group [4]: significantly decreased
- IgE ([4]; 30 mg/kg oral): 2.35 ± 0.38 µg/mL
- OVA specific IgE ([4]; 30 mg/kg oral): 295.36 ± 77.93 µg/mL
- IgE ([4]; 60 mg/kg oral): 2.27 ± 0.46 µg/mL
- OVA specific IgE ([4]; 60 mg/kg oral): 287.79 ± 69.53 µg/mL
- infiltration of inflammatory cells around the bronchi and blood vessels ([5]; H&E staining): decrease
- mucus secretion from goblet cells of the bronchial epithelium ([5]; PAS staining): significantly decreased
- EL-4 cell viability (%, mean ± SD) (EL-4 cells; 5 μg/ml): 101.94 ± 1.47%
- EL-4 cell viability (%, mean ± SD) (EL-4 cells; 10 μg/ml): 97.54 ± 8.05%
- EL-4 cell viability (%, mean ± SD) (EL-4 cells; 20 μg/ml): 91.82 ± 3.48%
- EL-4 cell viability (%, mean ± SD) (EL-4 cells; 50 μg/ml): 92.67 ± 3.43%
- EL-4 cell viability (%, mean ± SD) (EL-4 cells; 100 μg/ml): 95.29 ± 2.89%
- EL-4 cell viability (%, mean ± SD) (EL-4 cells; 200 μg/ml): 99.74 ± 6.14%
- survivability ratio of animals (sepsis animal model): Increases

From patent publication US11135193B2, “Composition containing monoacetyldiacylglycerol compound as active ingredient for preventing or treating asthma” (Enzychem Lifesciences Corporation, priority 2013, dated 2021)
